Drawing on patent US20240025891A1 (Celgene Corporation, priority 2020, published 2024), this text covers IC50 for 14 compounds.

Each structure is given as a SMILES string. pIC50: −log10 of the molar value.

The test system of this assay is Dirofilaria immitis microfilariae and 4th stage larvae (L4). The assay can be described thus: Heartworm screen Dirofilaria immitis (DiMF and DiL4 assays). The format is cell-based. The conditions noted are these: read-out: D. immitis Act class. As to the method:
Heartworm Screen Dirofilaria immitis (D. immitis)
Dirofilaria immitis, Microfilaria (DiMF) Assay. Compounds were dissolved and serially diluted in DMSO. Aliquots were spotted to the empty wells of assay plates. Media and microfilariae of Dirofilaria immitis were added to each well to dilute the test compounds to the desired concentrations. Assay plates were incubated for approximately 72 hours, and the larvae in each well were observed microscopically for drug effect. Microfilariae in each well were assessed subjectively for survival or paralysis, and results were reported as Minimum Effective Dose (MED).
Dirofilaria immitis, L4 stage (DiL4) Assay. Compounds were dissolved and serially diluted in DMSO. Aliquots were spotted to the empty wells of assay plates. Media and 4th stage larvae (L4) of Dirofilaria immitis were added to each well to dilute the test compounds to the desired concentrations. Assay plates were incubated for approximately 72 hours, and the larvae in each well were observed microscopically for drug effect. Larvae in each well were assessed subjectively for survival or paralysis, and results were reported as Minimum Effective Dose (MED).
Active and selective (DiL4 vs. DiMF potency) example compounds were subsequently evaluated in heartworm positive dog studies to correlate the in vitro selectivity profile with in vivo effects on circulating microfilariae.
On to `CC(=O)N(C)c1cc(C(F)(F)F)cnc1Nc1nc(-c2ccccn2)cs1` [Example 212, N-methyl-N-(2-(4-(pyridin-2-yl)thiazol-2-ylamino)-5-(trifluoro-methyl)pyridin-3-yl) acetamide], for which the pIC50 is 5.30 to 6.30.

Turning to `CCOc1ccc(Nc2nc(-c3ccc(OCC)cn3)cs2)nc1` [Example 87, N,4-bis(5-ethoxypyridin-2-yl)thiazol-2-amine], the pIC50 was over 6.70. As for `CCOc1cccnc1-c1csc(Nc2ncccc2C)n1` [Example 77, 4-(3-ethoxypyridin-2-yl)-N-(3-methylpyridin-2-yl)thiazol-2-amine], the pIC50 was over 6.70.

For the compound `CC(C)c1cnc(Nc2nc(-c3ccccn3)cs2)cc1C(F)(F)F` [Example 127, N-(5-isopropyl-4-(trifluoro-methyl)pyridin-2-yl)-4-(pyridin-2-yl)thiazol-2-amine], the pIC50 was over 6.70.

Turning to `c1ccc(-c2csc(Nc3cc4ccccc4cn3)n2)nc1` [Example 128, N-(isoquinolin-3-yl)-4-(pyridin-2-yl)thiazol-2-amine], the pIC50 is 6.30 to 6.70.

Take `Cc1cccnc1Nc1nc(-c2ccc(Cl)cn2)cs1` [Example 94, 4-(5-chloropyridin-2-yl)-N-(3-methylpyridin-2-yl)thiazol-2-amine]: the pIC50 was 6.30 to 6.70.

As for `Cc1sc(Nc2ccccn2)nc1-c1ccccn1` [Example 227, 5-methyl-N,4-di(pyridin-2-yl)thiazol-2-amine], the pIC50 was over 6.70. Take `Cc1ccnc(Nc2nc(-c3cc(-c4ccccc4)ccn3)cs2)c1` [Example 101, N-(4-methylpyridin-2-yl)-4-(4-phenylpyridin-2-yl)thiazol-2-amine]: the pIC50 was over 6.70. With `Cc1ccnc(Nc2nc(-c3cc(C)ccn3)cs2)c1` [Example 220, N,4-bis(4-methylpyridin-2-yl)thiazol-2-amine] the figure was over 6.70; with `c1ccc(-c2csc(Nc3cc(-c4cccnn4)ccn3)n2)nc1` [Example 169, N-(4-(pyridazin-3-yl)pyridin-2-yl)-4-(pyridin-2-yl)thiazol-2-amine], 5.30 to 6.30. As for `Cc1cccnc1Nc1nc(-c2ccc(OC3CC3)cn2)cs1` [Example 48], the pIC50 was 6.30 to 6.70. The result for `Cc1ccnc(Nc2nc(-c3ccccn3)c(CN3CCC3)s2)c1` [Example 183, 5-(azetidin-1-ylmethyl)-N-(4-methylpyridin-2-yl)-4-(pyridin-2-yl)thiazol-2-amine] reads 5.30 to 6.30; that for `CCOc1ccc(-c2csc(Nc3ccc(Cl)cn3)n2)nc1` [Example 85, N-(5-chloropyridin-2-yl)-4-(5-ethoxypyridin-2-yl)thiazol-2-amine], 5.30 to 6.30; that for `COc1ccc(Nc2nc(-c3ccccn3)cs2)nc1` [Example 218, N-(5-methoxypyridin-2-yl)-4-(pyridin-2-yl)thiazol-2-amine], 5.30 to 6.30.
